From patent US20060101536A1, “Eucalyptus urophylla transformation and regeneration” (ArborGen, LLC, priority 2004, published 2006)

Columns and labels:
[1] = system: Elite Eucalyptus urophylla clone; assay: Auxin pre-treatment, Agrobacterium infection rate by GUS staining; assay type: cell-based
Protocol: GUS staining was performed to monitor the frequency of Agrobacterium infection and to ensure that the selected shoots are not escapes or chimeras. […] To determine GUS activity, the explants were incubated in a substrate comprising 100 mM phosphate buffer (pH 7.0), 0.05% dimethyl suphoxide, 0.05% Triton X-100, 10 mM EDTA, 0.5 mM potassium ferrocyanide, and 1.5 mg/ml 5-bromo-4-chloro-3-indolyl-β-D-glucuronide (X-gluc). The explants were subjected to 10 minutes of vacuum before an overnight incubation at 37° C. Following overnight incubation, GUS foci were counted.
Explants from E. urophylla and E. saligna were prepared as described in Example 1 and Agrobacterium strain GV2260 containing pWVR133 was prepared as described in Example 3. Harvested explants were incubated in the dark for 4 days either on Eucalyptus regeneration medium or a medium with various auxin-rich growth regulators. Agrobacterium culture was dripped on explants and co-cultured with the explants on the same medium for 3 days in dark. Then, explants were removed from the Agrobacterium puddle and transferred to Euc Regeneration medium supplemented with 400 mg/l timentin for 4 days. Following transfer to regeneration medium, the explants were stained for GUS expression.

E. urophylla = assay: Combining auxin with Agrobacterium inducer in pre-culture, infection by GUS staining; assay type: cell-based, Eucalyptus urophylla; details: Table 8
Protocol: Induced Agrobacterium culture was prepared as described in Example 3 and the culture was dripped onto each explant by pipette. Sufficient Agrobacterium culture was dripped to ensure that all the cut edges were covered with bacterial solution. Alternatively, the explants may be transformed by vacuum infiltration, floral dip, and other methods of Agrobacterium-mediated transformation. Following transformation, explants covered with Agrobacterium culture were placed in the dark for four days of co-cultivation. Alternatively, the explants may be co-cultivated with Agrobacterium under light conditions. Additionally, the explants may be co-cultivated with Agrobacterium under light or dark conditions for 2-10 days, preferably 4 days. Following co-cultivation, the explants were transferred to Euc Regeneration medium (Table 3) with 400 mg/l timentin. There is no need to wash explants. Explants were cultured on this medium for four days before transfer to a selection medium. In the present example, the selection medium is the Euc Regeneration medium supplemented with both timentin and an herbicide selection agent.
(§1) GUS staining was performed to monitor the frequency of Agrobacterium infection and to ensure that the selected shoots are not escapes or chimeras. For transformation experiments with pWVR133, the leaf and stem tissues from the regenerated shoots were stained for GUS expression immediately upon shoot development. For transformation experiments with pWVZ20, leaf and stem tissues from the regenerated shoots were stained for GUS expression when shoots are further developed and free from residual Agrobacterium. To determine GUS activity, the explants were incubated in a substrate comprising 100 mM phosphate buffer (pH 7.0), 0.05% dimethyl suphoxide, 0.05% Triton X-100, 10 mM EDTA, 0.5 mM potassium ferrocyanide, and 1.5 mg/ml 5-bromo-4-chloro-3-indolyl-β-D-glucuronide (X-gluc). The explants were subjected to 10 minutes of vacuum before an overnight incubation at 37° C. Following overnight incubation, GUS foci were counted.
In the following examples, explants from E. urophylla clones were cultured on auxin-rich pre-culture medium with or without 250 μM AS before infection. Explants were pre-cultured with Euc Regeneration medium as the control. Following pre-culture, the explants were inoculated with Agrobacterium as described in Example 5.

[2] = system: E. urophylla leaf explants; assay: Geneticin selection of NPTII transformants, GUS staining of resistant calli; assay type: cell-based, Eucalyptus urophylla; details: about 10 weeks selection
Protocol: as §1
E. urophylla leaf explants were infected with Agrobacterium strain GV2260 harboring pWVC33, which contains GUS gene (driven by an constitutive promoter) and NPTII gene (driven by a different constitutive promoter). Before transforming, the explants were pre-cultured for 4 days on a medium having auxin enrichment (IAA at 2 mg/l instead of 0.1 mg/l NAA in standard regeneration medium) and acetosyringone (250 μM). As described in Example 6, the explants were infected with Agrobacterium, co-cultivated on the same medium for 3 days, and then transferred to a regeneration medium supplemented with 400 mg/l timentin for 4 days. Then, the explants were transferred to a selection medium containing geneticin instead of an herbicide selection agent.
The transformants were placed on geneticin selection medium containing geneticin (either 20 or 30 mg/l). Instead of the 3- or 4-week transfer cycles used with an herbicide selection medium, the explants were transferred bi-weekly to fresh geneticin medium. […]

[3] = system: wounded cells along the cut edges; assay: Agrobacterium inducer alone in pre-culture medium, infection by GUS staining; assay type: cell-based
[4] = system: Elite Eucalyptus urophylla clone; assay: Shoot regeneration after pre-culture in control experiments; assay type: cell-based; details: medium with 1.0 mg/l 2,4-D (0.5 mg/l zeatin)
From the text: In addition, the regeneration is not affected by the pre-culture in control experiments.

[5] = Table 6, 0.1 mg/l NAA + 5.0 mg/l zeatin (Control Regeneration Medium)
[6] = Table 7, 0.1 mg/l in EucReg Medium + 5 mg/l zeatin
[7] = Table 7, 0.1 mg/l in EucReg Medium + 5 mg/l zeatin, 25 explants
[8] = Table 7, 1.0 mg/l in EucReg Medium + 5 mg/l zeatin
[9] = Table 7, 1.0 mg/l in EucReg Medium + 5 mg/l zeatin, 25 explants
[10] = Table 7, 2.0 mg/l in EucReg Medium + 5 mg/l zeatin
[11] = Table 7, 2.0 mg/l in EucReg Medium + 5 mg/l zeatin, 25 explants
[12] = 0.1 mg/l NAA + 5.0 mg/l zeatin (Control Regeneration Medium)
[13] = Table 6, 0.25 mg/l 2,4-D + 0.5 mg/l zeatin
[14] = Table 6, 1.0 mg/l 2,4-D + 0.5 mg/l zeatin
[15] = Table 7, 0.5 mg/l in EucReg Medium + 5 mg/l zeatin
[16] = Table 7, 0.5 mg/l in EucReg Medium + 5 mg/l zeatin, 25 explants
[17] = 0.25 mg/l 2,4-D + 5.0 mg/l zeatin, with or without 250 μM AS
[18] = Table 7, 3.0 mg/l in EucReg Medium + 5 mg/l zeatin
[19] = 2 mg/l IAA + 5.0 mg/l zeatin, with or without 250 μM AS

| SMILES | % GUS+ [1, 6] | Avg. No. Foci/Responding Explant [1, 6] | No. GUS Foci [1, 6] | No. GUS+ [1, 7] | % GUS+ [1, 8] | Avg. No. Foci/Responding Explant [1, 8] | No. GUS Foci [1, 8] | No. GUS+ [1, 9] | % GUS+ [1, 10] | Avg. No. Foci/Responding Explant [1, 10] | No. GUS Foci [1, 10] | No. GUS+ [1, 11] | % GUS+ [1, 15] | Avg. No. Foci/Responding Explant [1, 15] | No. GUS Foci [1, 15] | No. GUS+ [1, 16] | further results |
| --- | --- | --- | --- | --- | --- | --- | --- | --- | --- | --- | --- | --- | --- | --- | --- | --- | --- |
| O=C(O)Cc1cccc2ccccc12 [NAA, naphthaleneacetic acid] | 16% | 1.3 | 5 | 4 | 52% | 2.7 | 35 | 13 | 36% | 3.3 | 30 | 9 | – | – | – | – | % GUS+ [1, 5]: 12%; Avg. No. Foci/Responding Explant [1, 5]: 2.3; No. GUS Foci [1, 5]: 6; No. GUS+ ([1]; Table 6, 0.1 mg/l NAA + 5.0 mg/l zeatin (Control Regeneration Medium), 25 explants): 3; % GUS+ (E. urophylla; [12]): 22%; Avg. No. Foci/Responding Explant (E. urophylla; [12]): 3.4; No. GUS Foci (E. urophylla; [12]): 37; No. GUS+ (E. urophylla; 0.1 mg/l NAA + 5.0 mg/l zeatin (Control Regeneration Medium), 50 explants): 11 |
| CN[C@@H]1[C@@H](O)[C@@H](O[C@@H]2[C@@H](O)[C@H](O[C@H]3O[C@H]([C@@H](C)O)[C@@H](O)[C@H](O)[C@H]3N)[C@@H](N)C[C@H]2N)OC[C@]1(C)O [Geneticin] | – | – | – | – | – | – | – | – | – | – | – | – | – | – | – | – | No. GUS+ Calli ([2]; Geneticin 20 mg/l, Regular shaded light, 5 calli stained): 0; No. GUS+ Calli ([2]; Geneticin 30 mg/l, Dark, 6 calli stained): 4; No. GUS+ Calli ([2]; Geneticin 30 mg/l, Regular shaded light, 17 calli stained): 13 |
| COc1cc(C(C)=O)cc(OC)c1O [AS, acetosyringone] | – | – | – | – | – | – | – | – | – | – | – | – | – | – | – | – | infection ([3]; AS alone in the pre-culture medium): stimulates infection; infection of the wounded cells along the cut edges ([3]; GUS staining): increases the infection of the wounded cells along the cut edges |
| O=C(O)COc1ccc(Cl)cc1Cl [2,4-D, 2,4-Dichlorophenoxy acetic acid] | – | – | – | – | 48% | 5.3 | 64 | 12 | – | – | – | – | 80% | 4.9 | 97 | 20 | % GUS+ [1, 13]: 17%; Avg. No. Foci/Responding Explant [1, 13]: 1.5; No. GUS Foci [1, 13]: 7; No. GUS+ ([1]; Table 6, 0.25 mg/l 2,4-D + 0.5 mg/l zeatin, 24 explants): 4; % GUS+ [1, 14]: 60%; Avg. No. Foci/Responding Explant [1, 14]: 10.3; No. GUS Foci [1, 14]: 155; No. GUS+ ([1]; Table 6, 1.0 mg/l 2,4-D + 0.5 mg/l zeatin, 25 explants): 15; % GUS+ (E. urophylla; [17]): 72%; Avg. No. Foci/Responding Explant (E. urophylla; [17]): 10.8; No. GUS Foci (E. urophylla; [17]): 388; No. GUS+ (E. urophylla; 0.25 mg/l 2,4-D + 5.0 mg/l zeatin, with or without 250 μM AS, 50 explants): 36; shoot regeneration [4]: delay of shoot regeneration |
| O=C(O)Cc1c[nH]c2ccccc12 [IAA, indole-3-acetic acid] | – | – | – | – | 64% | 7.3 | 116 | 16 | 64% | 10.4 | 167 | 16 | – | – | – | – | % GUS+ [1, 18]: 96%; Avg. No. Foci/Responding Explant [1, 18]: 12.3; No. GUS Foci [1, 18]: 565; No. GUS+ ([1]; Table 7, 3.0 mg/l in EucReg Medium + 5 mg/l zeatin, 48 explants): 46; % GUS+ (E. urophylla; [19]): 73%; Avg. No. Foci/Responding Explant (E. urophylla; [19]): 8.0; No. GUS Foci (E. urophylla; [19]): 289; No. GUS+ (E. urophylla; 2 mg/l IAA + 5.0 mg/l zeatin, with or without 250 μM AS, 49 explants): 36 |
| O=C(Nc1ccccc1)Nc1cnns1 [TDZ, thiadiazuron] | 12% | 8.3 | 25 | 3 | 0% | 0.0 | 0 | 0 | – | – | – | – | 4% | 3.0 | 3 | 1 | – |
